Laboratory results published in the supplement of paper PMC10307832.

Compound: C=CCn1c(=O)c2cnc(Nc3ccc(N4CCN(C)CC4)cc3)nc2n1-c1cccc(C(C)(C)O)n1 [Adavosertib] + NC(=O)Nc1cc(-c2cccc(F)c2)sc1C(=O)N[C@H]1CCCNC1 [AZD7762] (partner 0.2 µM)
Test: relative viability (nuclei count vs DMSO), 5 days (fraction); higher = more cells survive
Procedure, shortened: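 Lung cancer cell lines, seeded in 1536-well plates, were treated the following day by pin tool with a single drug or with five library-drug doses (not always all listed) in √10 steps on top of a fixed anchor-drug dose. Cells were fixed and nuclei stained in one step after 5 days, and nuclei were counted. Relative viability is the nuclei count for treated wells divided by that for vehicle wells, reported as medians of duplicate plates.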

Row | Cell Line | relative viability (first compound 0.01 µM) | relative viability (first compound 0.03162 µM) | relative viability (first compound 0.1 µM) | relative viability (first compound 0.3162 µM)
1 | 201T | 0.615 | 0.537 | 0.471 | 0.267
2 | A-427 | 0.692 | 0.4 | 0.327 | 0.231
3 | ABC-1 | 0.87 | 0.706 | 0.623 | 0.802
4 | BEN | 0.571 | 0.622 | 0.632 | 0.451
5 | CAL-12T | 0.569 | 0.41 | 0.427 | 0.232
6 | ChaGo-K-1 | 0.918 | 0.836 | 0.732 | 0.29
7 | EKVX | 0.595 | 0.731 | 0.635 | 0.799
8 | EMC-BAC-2 | – | 1.15 | 0.887 | 1.06
9 | EPLC-272H | 0.161 | 0.151 | 0.127 | 0.135
10 | H3255 | 0.824 | 0.854 | 0.721 | 0.559
11 | HARA | 0.296 | 0.192 | 0.155 | 0.129
12 | HCC-15 | 1.1 | 1.28 | 1.57 | 1.14
13 | HCC-44 | 0.989 | 0.971 | 1.02 | 0.902
14 | HCC-78 | 0.512 | 0.603 | 0.564 | 0.368
15 | HCC-366 | 0.292 | 0.21 | 0.184 | 0.0419
16 | HCC-827 | 0.196 | 0.166 | 0.179 | 0.15
17 | HOP-62 | 0.697 | 0.382 | 0.364 | 0.116
18 | LC-2-ad | 0.792 | 0.846 | 0.817 | 0.62
19 | LCLC-97TM1 | 0.289 | 0.264 | 0.138 | 0.0845
20 | LCLC-103H | 0.786 | 0.783 | 0.775 | 0.408
21 | LK-2 | 0.29 | 0.374 | 0.236 | 0.168

Row | Cell Line | relative viability (first compound 0.01 µM) | relative viability (first compound 0.03162 µM) | relative viability (first compound 0.1 µM) | relative viability (first compound 0.3162 µM)
22 | LOU-NH91 | 0.776 | 0.723 | 0.645 | 0.531
23 | LU99A | 0.295 | 0.196 | 0.184 | 0.122
24 | LXF-289 | 1.08 | 0.984 | 0.683 | 0.231
25 | NCI-H23 | 0.227 | 0.143 | 0.118 | 0.142
26 | NCI-H322M | 0.472 | 0.427 | 0.387 | 0.337
27 | NCI-H358 | 0.486 | 0.488 | 0.329 | 0.234
28 | NCI-H441 | 1.12 | 0.989 | 0.658 | 0.355
29 | NCI-H460 | 0.376 | 0.507 | 0.169 | 0.0591
30 | NCI-H522 | 0.654 | 0.733 | 0.782 | 0.882
31 | NCI-H596 | 1.04 | 1.05 | 0.844 | 0.751
32 | NCI-H647 | 0.351 | 0.358 | 0.167 | 0.0858
33 | NCI-H650 | 0.736 | 0.809 | 0.411 | 0.221
34 | NCI-H727 | 0.636 | 0.406 | 0.445 | 0.394
35 | NCI-H838 | 0.986 | 0.831 | 0.722 | 0.626
36 | NCI-H1355 | 0.734 | 0.599 | 0.406 | 0.307
37 | NCI-H1395 | 0.377 | 0.354 | 0.345 | 0.316
38 | NCI-H1437 | 1.11 | 1.11 | 1.15 | 0.581
39 | NCI-H1648 | 0.549 | 0.532 | 0.533 | 0.414
40 | NCI-H1651 | 0.415 | 0.299 | 0.264 | 0.132
41 | NCI-H1666 | 0.766 | 0.829 | 0.803 | 0.625
42 | NCI-H1703 | 0.105 | 0.13 | 0.122 | 0.118

Row | Cell Line | relative viability (first compound 0.01 µM) | relative viability (first compound 0.03162 µM) | relative viability (first compound 0.1 µM) | relative viability (first compound 0.3162 µM)
43 | NCI-H1734 | 0.379 | 0.315 | 0.202 | 0.168
44 | NCI-H1755 | 0.455 | 0.33 | 0.327 | 0.253
45 | NCI-H1792 | 0.683 | 0.652 | 0.452 | 0.135
46 | NCI-H1793 | 0.407 | 0.2 | 0.14 | 0.179
47 | NCI-H1915 | 0.724 | 0.657 | 0.566 | 0.238
48 | NCI-H1944 | 0.511 | 0.31 | 0.23 | 0.164
49 | NCI-H1975 | 0.713 | 0.677 | 0.663 | 0.641
50 | NCI-H1993 | 0.905 | 0.828 | 0.697 | 0.807
51 | NCI-H2085 | 0.995 | 0.909 | 0.731 | 0.409
52 | NCI-H2087 | 1.37 | 1.21 | 1.3 | 1.03
53 | NCI-H2126 | 0.962 | 1.03 | 0.949 | 0.788
54 | NCI-H2170 | 0.919 | 0.838 | 0.725 | 0.266
55 | NCI-H2342 | 0.524 | 0.508 | 0.48 | 0.43
56 | NCI-H2347 | 0.791 | 0.674 | 0.476 | 0.329
57 | NCI-H2405 | – | 0.663 | 0.331 | 0.276
58 | NCI-H3122 | 0.998 | 0.829 | 0.963 | 0.511
59 | PC-3 [JPC-3] | – | 0.757 | 0.777 | 0.709
60 | PC-14 | 0.261 | 0.289 | 0.224 | 0.0765
61 | RERF-LC-KJ | 0.987 | 1.02 | 1.02 | 0.878
62 | SW 900 | 0.559 | 0.422 | 0.281 | 0.175
